The record followed here is patent publication US20110177014A1, “EXTRACTS FROM PLANTS OF THE TSUGA GENUS AND USES THEREOF IN THE TREATMENT OF INFLAMMATION, IRRITATION AND/OR INFECTION” (BIOPHARMACOPAE DESIGN INTERNATIONAL INC., priority 2008, published 2011).

What all share (assay type): cell-based
In data set [1] the test system is HUVECs. Description: Cord formation assay on Matrigel (angiogenesis). The conditions noted are these: Homo sapiens, HUVEC. As for the experimental part: 60 μl Matrigel® was added to a 96-well plate flat bottom plate (Costar 3096) and incubated for 30 minutes at 37° C. in a 5% CO2 atmosphere. A mixture of HUVECs and Tsuga extract, or a positive control (Fumagillin or GM6001) were added to each well. HUVECs were prepared as suspensions of 2.5×10^5 cells per ml in EGM-2, then 500 μl of HUVECs preparation was mixed with 500 μl of 2× of the desired dilution of Tsuga extract or control drug and 200 μl were added to each well. Four dilutions of each extract were tested in duplicate. After 18-24 hours at 37° C. in 5% CO2, the cells had migrated and organized into cords. The number of cell junctions was counted in 3 randomly selected fields and the inhibition of cord formation is calculated as follows: [(A−B)/A]×100, where A is the average number of cell junctions per field in the control well and B is the average number of cell junctions per field in the treated wells.

Data set [2] deals with human skin fibroblasts. Kind of data set: Inhibition of contractile force of fibroblasts in collagen I gel. The settings on record: Skin fibroblast, read-out: inhibition of tractional force of fibroblasts. From the text: The skin model comprises human skin fibroblasts imbedded in a collagen I matrix and provides an in vitro representation of dermal contraction resulting from tractional forces generated by fibroblasts. Partial or permanent dermal contraction can play a role in the formation of wrinkles. Thus, extracts capable of inhibiting the contractile force of fibroblasts, have the potential to provide a dermo-decontraction anti-ageing effect in the skin.
The ability of the Tsuga extracts to inhibit the contractile force of fibroblasts was evaluated on human skin fibroblasts (Cascade Biologics, Portland, Oreg.). The cells were imbedded in a collagen I matrix to create a derm-like environment. Fibroblasts were grown in complete M106 to 80% confluence. Free-floating fibroblast-populated collagen gels were prepared in 24-well plates. 500 μl of gel contains 2.5 mg/ml of collagen I (rat tail, BD Biosciences, Bedford, Mass.), M106 5X, NaOH 0.7N; 1×10^5 cells and fetal bovine serum (FBS) at 20% (Wisent, St-Bruno, QC, Canada). The mix was kept on ice until distribution. The derm-like gels were allowed to polymerize for 1 hour at 37° C. in a humidified 5% CO2 atmosphere. After incubation, the gels were detached from the wells. […] Contraction was measured beginning at day 5. Contracting gels were digitally photographed and the gel areas were calculated using ImagePro software.

Data set [3] deals with human skin keratinocytes. Kind of data set: IL-8 release from keratinocytes (irritation potential), ELISA. The conditions noted are these: 5 μM; basal level 18 pg/ml. As for the experimental part: This example provides results showing the non-irritating quality of the Tsuga extracts. The amount of interleukin-8 (IL-8) released in the following assay is used to quantify a possible irritating reaction after exposure of keratinocytes to the Tsuga extract.
Release of IL-8 was evaluated on human skin keratinocytes (Cascade Biologics, Portland, Oreg., catalog number C-005) and measured using the Quantikine hIL8 ELISA kit (R&D Systems, Minneapolis, Minn., catalog number D8000C). Keratinocytes were first grown in a 96-well plate using complete medium M154 (M154+HKGS cat S-001 from Cascade Biologics). This medium was used as a negative (non-irritating) control, while 2.5 μM phorbol 12-myristate 13-acetate (PMA) (Sigma-Aldrich Canada, Oakville, Ontario) was used as a positive (irritating) control. All extracts and controls were diluted in complete medium M154. Cells were seeded into 96-well plates at a concentration of 8×10^3 cells/well in complete M154 medium and plates were incubated for 48 hours at 37° C. in a humidified 5% CO2 atmosphere. The medium was removed and 200 μl of Tsuga extract or control were added to the wells (all performed in duplicate) and then the plates were incubated for 48 hours at 37° C. in a humidified 5% CO2 atmosphere. […] The absorbance was read at 450 nm on the Spectrafluor Plus plate reader (Tecan). […]

Data set [4] deals with human skin keratinocytes. Kind of data set: UVA-induced IL-1 release in keratinocytes, ELISA. The settings on record: UVA 20 J/cm^2. As for the experimental part: This example provides results showing the anti-inflammatory effect of Tsuga extracts when inflammation is induced in keratinocytes. The amount of interleukin-1 alpha (IL-1) released is used to quantify the inflammatory reaction after exposure of the keratinocytes to UVA light irradiation. IL-1 release was evaluated in human skin keratinocytes (Cascade Biologics, Portland, Oreg.) and was measured using the Quantikine hIL1 ELISA kit (R&D Systems, Minneapolis, Minn.). Keratinocytes were first grown in a 96-well plate using complete […] medium with different concentrations of extracts for 48 hours at 37° C. in a humidified 5% CO2 atmosphere. All extracts and controls were diluted in complete […] medium. Cells were rinsed with HBSS and irradiated with UVA at 20 J/cm^2. HBSS was removed and complete […] medium containing controls or extracts was added to respective wells. Plates were incubated for another 24 hours. ELISA was performed following the manufacturer's recommendations (R&D Systems). The absorbance was read at 450 nm on the Spectrafluor Plus plate reader (Tecan). […] The inhibition of IL-1 release is proportional to the anti-inflammatory effect.
On the technique in general: In an ELISA, binding on a coated surface is turned into a signal by an enzyme label.

`CO[C@@H]1[C@H](OC(=O)/C=C/C=C/C=C/C=C/C(=O)O)CC[C@]2(CO2)[C@H]1[C@@]1(C)O[C@@H]1CC=C(C)C` [Fumagillin] came in with an inhibition at 15 µg/mL in data set [1] (15 μg/ml) of 100%. Regarding `CNC(=O)[C@H](Cc1c[nH]c2ccccc12)NC(=O)[C@@H](CC(=O)NO)CC(C)C` [GM6001], in data set [2], the inhibition at 50 µM stood at 85%. In addition, 25 µM produced 78% inhibition in data set [1] (25 μM).

Consider `CCCCCCCCCCCCCC(=O)O[C@@H]1[C@@H](C)[C@@]2(O)[C@@H](C=C(CO)C[C@]3(O)C(=O)C(C)=C[C@@H]23)[C@@H]2C(C)(C)[C@]12OC(C)=O` [PMA, phorbol 12-myristate 13-acetate], for which the IL-8 release in data set [3] was found to be 282 pg/mL.

Take `O=C(O)c1ccccc1O` [salicylic acid]: the “inhibition of IL-1 release” value in data set [4] (0.025%) is 11%; in data set [4] (0.05%), 27%.

What is called inhibition is the relative decrease from the control value, in per cent.
